From ChEMBL document CHEMBL1201862, “PubChem BioAssay data set” (2004)
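Where inhibition never reached the appropriate level, the endpoint shown equals the highest concentration tested. Otherwise, values were interpolated linearly from a five-concentration, 48-hour dose response in 96-well plates. At the GI50, growth is halved.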 Calls of active or inactive are those of the source. Cut-off read from the data, not from the text of the source: active = GI50 up to about 1.1 µM and inactive = higher.

Key:
Experiment in all cases: NCI anticancer screen, dose series, 48 h
HL-60 = system: HL-60
SF-295 = system: SF-295
MDA-MB-435 = system: MDA-MB-435
UACC-62 = system: UACC-62
SK-MEL-2 = system: SK-MEL-2
HOP-62 = system: HOP-62
MDA-MB-231 = system: MDA-MB-231
786-0 = system: 786-0
SK-OV-3 = system: SK-OV-3
COLO 205 = system: COLO 205
RXF 393 = system: RXF 393
T47D = system: T47D
SK-MEL-5 = system: SK-MEL-5
TK-10 = system: TK-10
HT-29 = system: HT-29
A549 = system: A549
UACC-257 = system: UACC-257
ACHN = system: ACHN
MOLT-4 = system: MOLT-4
Hs-578T = system: Hs-578T
OVCAR-3 = system: OVCAR-3
RPMI-8226 = system: RPMI-8226
DU-145 = system: DU-145
K562 = system: K562
MCF7 = system: MCF7
BT-549 = system: BT-549
NCI-H522 = system: NCI-H522
PC-3 = system: PC-3
M14 = system: M14
NCI-H460 = system: NCI-H460
U-251 = system: U-251
HCC 2998 = system: HCC 2998
NCI/ADR-RES = system: NCI/ADR-RES
Malme-3M = system: Malme-3M
MDA-N = system: MDA-N
OVCAR-5 = system: OVCAR-5
SW-620 = system: SW-620
UO-31 = system: UO-31
SF-268 = system: SF-268
SN12C = system: SN12C
IGROV-1 = system: IGROV-1
HOP-92 = system: HOP-92
SK-MEL-28 = system: SK-MEL-28
HCT-15 = system: HCT-15
A498 = system: A498
OVCAR-8 = system: OVCAR-8
SF-539 = system: SF-539
NCI-H23 = system: NCI-H23
NCI-H226 = system: NCI-H226
HCT-116 = system: HCT-116
CAKI-1 = system: CAKI-1
SNB-19 = system: SNB-19
SNB-75 = system: SNB-75
EKVX = system: EKVX
OVCAR-4 = system: OVCAR-4
KM12 = system: KM12
CCRF-CEM = system: CCRF-CEM
SR = system: SR
LOX IMVI = system: LOX IMVI

c1ccc2c(CN3CCC(C4CCN(Cc5cccc6ccccc56)CC4)CC3)cccc2c1
GI50 (HL-60): 3.01 µM (inactive) | GI50 (SF-295): 6.28 µM (inactive) | GI50 (MDA-MB-435): 3.52 µM (inactive) | GI50 (UACC-62): 7.43 µM (inactive) | GI50 (SK-MEL-2): 8.41 µM (inactive) | GI50 (HOP-62): 25.4 µM (inactive) | GI50 (MDA-MB-231): 21.4 µM (inactive) | GI50 (786-0): 16.3 µM (inactive) | GI50 (SK-OV-3): 28 µM (inactive) | GI50 (COLO 205): 1.77 µM (inactive) | GI50 (RXF 393): 21.8 µM (inactive) | GI50 (T47D): 23.1 µM (inactive) | GI50 (SK-MEL-5): 4.89 µM (inactive) | GI50 (TK-10): 20.1 µM (inactive) | GI50 (HT-29): 3.28 µM (inactive) | GI50 (A549): 62.7 µM (inactive) | GI50 (UACC-257): 3.48 µM (inactive) | GI50 (ACHN): 33.3 µM (inactive) | GI50 (MOLT-4): 5.27 µM (inactive) | GI50 (Hs-578T): 32.1 µM (inactive) | GI50 (OVCAR-3): > 58.6 µM (inactive) | GI50 (RPMI-8226): 2.57 µM (inactive) | GI50 (DU-145): 86.1 µM (inactive) | GI50 (K562): 1.6 µM (inactive) | GI50 (MCF7): 26.5 µM (inactive) | GI50 (BT-549): > 56 µM (inactive) | GI50 (NCI-H522): 8.53 µM (inactive) | GI50 (PC-3): 32.8 µM (inactive) | GI50 (M14): 1.98 µM (inactive) | GI50 (NCI-H460): 16.3 µM (inactive) | GI50 (U-251): 16.5 µM (inactive) | GI50 (HCC 2998): 1.77 µM (inactive) | GI50 (NCI/ADR-RES): 38.3 µM (inactive) | GI50 (Malme-3M): 3.47 µM (inactive) | GI50 (MDA-N): 8.13 µM (inactive)

C=CCCC1CCCNC1=S (configuration not stated)
GI50 (SF-295): > 100 µM (inactive) | GI50 (MDA-MB-435): > 100 µM (inactive) | GI50 (UACC-62): > 100 µM (inactive) | GI50 (SK-MEL-2): > 100 µM (inactive) | GI50 (OVCAR-5): > 100 µM (inactive) | GI50 (HOP-62): > 100 µM (inactive) | GI50 (SW-620): > 100 µM (inactive) | GI50 (MDA-MB-231): > 100 µM (inactive) | GI50 (786-0): > 100 µM (inactive) | GI50 (SK-OV-3): > 100 µM (inactive) | GI50 (COLO 205): > 100 µM (inactive) | GI50 (RXF 393): > 100 µM (inactive) | GI50 (UO-31): > 100 µM (inactive) | GI50 (SF-268): > 100 µM (inactive) | GI50 (T47D): > 100 µM (inactive) | GI50 (SN12C): > 100 µM (inactive) | GI50 (SK-MEL-5): > 100 µM (inactive) | GI50 (IGROV-1): > 100 µM (inactive) | GI50 (TK-10): > 100 µM (inactive) | GI50 (HOP-92): > 100 µM (inactive) | GI50 (HT-29): > 100 µM (inactive) | GI50 (A549): > 100 µM (inactive) | GI50 (UACC-257): > 100 µM (inactive) | GI50 (SK-MEL-28): > 100 µM (inactive) | GI50 (ACHN): > 100 µM (inactive) | GI50 (HCT-15): > 100 µM | GI50 (Hs-578T): > 100 µM (inactive) | GI50 (A498): > 100 µM (inactive) | GI50 (RPMI-8226): > 100 µM (inactive) | GI50 (OVCAR-8): > 100 µM (inactive) | GI50 (DU-145): > 100 µM (inactive) | GI50 (K562): > 100 µM (inactive) | GI50 (SF-539): > 100 µM (inactive) | GI50 (MCF7): > 100 µM (inactive) | GI50 (NCI-H23): > 100 µM (inactive) | GI50 (NCI-H226): > 100 µM (inactive) | GI50 (BT-549): > 100 µM (inactive) | GI50 (HCT-116): > 100 µM (inactive) | GI50 (NCI-H522): > 100 µM (inactive) | GI50 (PC-3): > 100 µM (inactive) | GI50 (CAKI-1): > 100 µM (inactive) | GI50 (M14): > 100 µM (inactive) | GI50 (SNB-19): > 100 µM (inactive) | GI50 (NCI-H460): > 100 µM (inactive) | GI50 (U-251): > 100 µM (inactive) | GI50 (HCC 2998): > 100 µM (inactive) | GI50 (SNB-75): > 100 µM (inactive) | GI50 (EKVX): > 100 µM (inactive) | GI50 (OVCAR-4): > 100 µM (inactive) | GI50 (MDA-N): > 100 µM (inactive)

CC1(C)OCC2OC3([C@H](O)CCO)OC(C)(C)OC3C2O1 (some centres not stated)
GI50 (SF-295): > 100 µM (inactive) | GI50 (MDA-MB-435): > 100 µM (inactive) | GI50 (UACC-62): > 100 µM (inactive) | GI50 (SK-MEL-2): > 100 µM (inactive) | GI50 (OVCAR-5): > 100 µM (inactive) | GI50 (HOP-62): > 100 µM (inactive) | GI50 (SW-620): > 100 µM (inactive) | GI50 (MDA-MB-231): > 100 µM (inactive) | GI50 (786-0): > 100 µM (inactive) | GI50 (COLO 205): > 100 µM (inactive) | GI50 (RXF 393): > 100 µM (inactive) | GI50 (UO-31): > 100 µM (inactive) | GI50 (T47D): > 100 µM (inactive) | GI50 (SN12C): > 100 µM (inactive) | GI50 (SK-MEL-5): > 100 µM (inactive) | GI50 (IGROV-1): > 100 µM (inactive) | GI50 (HOP-92): > 100 µM (inactive) | GI50 (HT-29): > 100 µM (inactive) | GI50 (A549): > 100 µM (inactive) | GI50 (UACC-257): > 100 µM (inactive) | GI50 (SK-MEL-28): > 100 µM (inactive) | GI50 (ACHN): > 100 µM (inactive) | GI50 (HCT-15): > 100 µM | GI50 (MOLT-4): > 100 µM (inactive) | GI50 (OVCAR-3): > 100 µM (inactive) | GI50 (KM12): > 100 µM (inactive) | GI50 (A498): > 100 µM (inactive) | GI50 (RPMI-8226): > 100 µM (inactive) | GI50 (OVCAR-8): > 100 µM (inactive) | GI50 (DU-145): > 100 µM (inactive) | GI50 (K562): > 100 µM (inactive) | GI50 (SF-539): > 100 µM (inactive) | GI50 (MCF7): > 100 µM (inactive) | GI50 (NCI-H23): > 100 µM (inactive) | GI50 (NCI-H226): > 100 µM (inactive) | GI50 (BT-549): > 100 µM (inactive) | GI50 (HCT-116): > 100 µM (inactive) | GI50 (PC-3): > 100 µM (inactive) | GI50 (CAKI-1): > 100 µM (inactive) | GI50 (CCRF-CEM): > 100 µM (inactive) | GI50 (M14): > 100 µM (inactive) | GI50 (SNB-19): > 100 µM (inactive) | GI50 (NCI-H460): > 100 µM (inactive) | GI50 (SR): > 100 µM (inactive) | GI50 (U-251): > 100 µM (inactive) | GI50 (HCC 2998): > 100 µM (inactive) | GI50 (LOX IMVI): > 100 µM (inactive) | GI50 (SNB-75): > 100 µM (inactive) | GI50 (NCI/ADR-RES): > 100 µM (inactive) | GI50 (EKVX): > 100 µM (inactive) | GI50 (OVCAR-4): > 100 µM (inactive) | GI50 (MDA-N): > 100 µM (inactive)
